In publication PMC5218480 (PLoS ONE, 2017):

Test system: MV-4-11 cells
Test: Gene expression microarray analysis (Affymetrix PrimeView) and GSEA
Type: cell-based, human
Set-up: RFU PODN (11730768_x_at) / Fold change /veh PODN (11730768_x_at) / RFU LINC00158 (11744669_a_at) / Fold change /veh LINC00158 (11744669_a_at) / RFU DUSP10 (11751237_a_at) / Fold change /veh DUSP10 (11751237_a_at) / RFU ID3 (11757404_x_at) / Fold change /veh ID3 (11757404_x_at) / RFU PLEKHG5 (11737974_s_at) / Fold change /veh PLEKHG5 (11737974_s_at) / RFU LRRC4B (11730491_at) / Fold change /veh LRRC4B (11730491_at) / RFU GIMAP4 (11747438_a_at) / Fold change /veh GIMAP4 (11747438_a_at) / RFU KRT8 (11758183_x_at) / Fold change /veh KRT8 (11758183_x_at) / RFU CNN1 (11734310_a_at) / Fold change /veh CNN1 (11734310_a_at) / RFU VPS37D (11726825_at) / Fold change /veh VPS37D (11726825_at) / RFU C10orf10 (11716522_x_at) / Fold change /veh C10orf10 (11716522_x_at) / RFU KIR2DL2 /// KIR2DL4 /// KIR2DL5A /// KIR2DL5B /// KIR2DS1 /// KIR2DS2 /// KIR2DS3 /// KIR2DS4 /// KIR3DL3 /// KIR3DL3 /// KIR3DS1 (11738374_at) / Fold change /veh KIR2DL2 /// KIR2DL4 /// KIR2DL5A /// KIR2DL5B /// KIR2DS1 /// KIR2DS2 /// KIR2DS3 /// KIR2DS4 /// KIR3DL3 /// KIR3DL3 /// KIR3DS1 (11738374_at) / RFU C1QL1 (11718748_at) / Fold change /veh C1QL1 (11718748_at) / RFU TMPRSS4 (11747572_a_at) / Fold change /veh TMPRSS4 (11747572_a_at) / RFU HAMP (11756126_x_at) / Fold change /veh HAMP (11756126_x_at) / RFU RNFT2 (11725882_a_at) / Fold change /veh RNFT2 (11725882_a_at) / RFU NR4A2 (11747474_a_at) / Fold change /veh NR4A2 (11747474_a_at) / RFU ABCC12 (11746883_a_at) / Fold change /veh ABCC12 (11746883_a_at) / RFU TMEM136 (11760407_x_at) / Fold change /veh TMEM136 (11760407_x_at) / RFU CLDN22 /// WWC2 (11732394_at) / Fold change /veh CLDN22 /// WWC2 (11732394_at) / RFU HLA-DPB1 (11760878_x_at) / Fold change /veh HLA-DPB1 (11760878_x_at) / RFU SPINT1 (11716480_a_at) / Fold change /veh SPINT1 (11716480_a_at) / RFU GAP43 (11754022_s_at) / Fold change /veh GAP43 (11754022_s_at) / RFU A4GNT (11735810_at) / Fold change /veh A4GNT (11735810_at) / RFU PRB3 (11715151_x_at) / Fold change /veh PRB3 (11715151_x_at) / RFU TUBB4B (11761932_at) / Fold change /veh TUBB4B (11761932_at) / RFU CAPN14 (11732068_a_at) / Fold change /veh CAPN14 (11732068_a_at) / RFU TMCC2 (11721928_a_at) / Fold change /veh TMCC2 (11721928_a_at) / RFU IRGQ (11745062_a_at) / Fold change /veh IRGQ (11745062_a_at) / RFU FAM174B (11720279_a_at) / Fold change /veh FAM174B (11720279_a_at) / RFU TMPRSS4 (11748680_a_at) / Fold change /veh TMPRSS4 (11748680_a_at) / RFU FAM212B (11763350_a_at) / Fold change /veh FAM212B (11763350_a_at) / RFU PLEKHG5 (11743358_a_at) / Fold change /veh PLEKHG5 (11743358_a_at) / RFU ZSCAN30 (11745921_a_at) / Fold change /veh ZSCAN30 (11745921_a_at) / RFU CMKLR1 (11741424_a_at) / Fold change /veh CMKLR1 (11741424_a_at) / RFU LOC101060620 /// MAPK8IP1 (11723275_at) / Fold change /veh LOC101060620 /// MAPK8IP1 (11723275_at) / RFU SPTSSB (11747773_x_at) / Fold change /veh SPTSSB (11747773_x_at) / RFU PRSS12 (11739890_at) / Fold change /veh PRSS12 (11739890_at) / RFU BIN1 (11741810_x_at) / Fold change /veh BIN1 (11741810_x_at) / RFU WNT11 (11732464_a_at) / Fold change /veh WNT11 (11732464_a_at) / RFU C10orf10 (11716521_a_at) / Fold change /veh C10orf10 (11716521_a_at) / RFU C5orf56 (11738089_at) / Fold change /veh C5orf56 (11738089_at) / RFU CYB561 (11721691_x_at) / Fold change /veh CYB561 (11721691_x_at) / RFU ANKRD19P (11752326_a_at) / Fold change /veh ANKRD19P (11752326_a_at) / RFU OR2T12 /// OR2T33 /// OR2T8 (11738714_s_at) / Fold change /veh OR2T12 /// OR2T33 /// OR2T8 (11738714_s_at) / RFU VCAN (11748164_a_at) / Fold change /veh VCAN (11748164_a_at) / RFU JSRP1 (11732532_at) / Fold change /veh JSRP1 (11732532_at) / RFU KRTAP10-11 (11738290_x_at) / Fold change /veh KRTAP10-11 (11738290_x_at) / RFU MYO3A (11730013_a_at) / Fold change /veh MYO3A (11730013_a_at) / RFU EBF3 (11725865_a_at) / Fold change /veh EBF3 (11725865_a_at) / RFU CAMK2N1 (11719241_x_at) / Fold change /veh CAMK2N1 (11719241_x_at) / RFU C5orf56 (11738088_a_at) / Fold change /veh C5orf56 (11738088_a_at) / RFU OLFML3 (11715873_a_at) / Fold change /veh OLFML3 (11715873_a_at) / RFU LOC100653217 /// NTM (11731650_a_at) / Fold change /veh LOC100653217 /// NTM (11731650_a_at) / RFU MAPK11 (11762145_a_at) / Fold change /veh MAPK11 (11762145_a_at) / RFU FIZ1 (11724087_x_at) / Fold change /veh FIZ1 (11724087_x_at) / RFU OASL (11726364_x_at) / Fold change /veh OASL (11726364_x_at) / RFU SOX15 (11748057_x_at) / Fold change /veh SOX15 (11748057_x_at) / RFU CD79A (11719716_a_at) / Fold change /veh CD79A (11719716_a_at) / RFU HIST1H1D (11736915_at) / Fold change /veh HIST1H1D (11736915_at) / RFU CASKIN2 (11723855_a_at) / Fold change /veh CASKIN2 (11723855_a_at) / RFU LOC730098 (11760151_x_at) / Fold change /veh LOC730098 (11760151_x_at) / RFU OR4N2 (11742367_at) / Fold change /veh OR4N2 (11742367_at) / RFU PRRT2 (11749266_a_at) / Fold change /veh PRRT2 (11749266_a_at) / RFU SNX32 (11753110_a_at) / Fold change /veh SNX32 (11753110_a_at) / RFU CDHR5 (11726645_a_at) / Fold change /veh CDHR5 (11726645_a_at) / RFU RCAN1 (11760418_a_at) / Fold change /veh RCAN1 (11760418_a_at) / RFU FAM167A (11723789_a_at) / Fold change /veh FAM167A (11723789_a_at) / RFU FAM26E (11764081_at) / Fold change /veh FAM26E (11764081_at) / RFU ISYNA1 (11749810_s_at) / Fold change /veh ISYNA1 (11749810_s_at) / RFU ACY1 (11761880_at) / Fold change /veh ACY1 (11761880_at) / RFU 11764098_at / Fold change /veh 11764098_at / RFU SAMD14 (11745864_x_at) / Fold change /veh SAMD14 (11745864_x_at) / RFU NPB (11741838_a_at) / Fold change /veh NPB (11741838_a_at) / RFU TMPRSS6 (11731388_a_at) / Fold change /veh TMPRSS6 (11731388_a_at) / RFU KRTAP10-2 (11738614_at) / Fold change /veh KRTAP10-2 (11738614_at) / RFU ARHGAP8 /// PRR5-ARHGAP8 (11727945_x_at) / Fold change /veh ARHGAP8 /// PRR5-ARHGAP8 (11727945_x_at) / RFU KRTAP5-7 /// NADSYN1 (11734609_at) / Fold change /veh KRTAP5-7 /// NADSYN1 (11734609_at) / RFU RASL12 (11751679_a_at) / Fold change /veh RASL12 (11751679_a_at) / RFU CDKN2B (11736163_a_at) / Fold change /veh CDKN2B (11736163_a_at) / RFU PRF1 (11729649_at) / Fold change /veh PRF1 (11729649_at) / RFU, ZNF638 /// ZNF638-IT1 / Fold change vs veh, ZNF638 /// ZNF638-IT1 / RFU, PANK3 / Fold change vs veh, PANK3 / RFU, SH3YL1 / Fold change vs veh, SH3YL1 / RFU, ZEB2 / Fold change vs veh, ZEB2 / RFU, NRIP1 / Fold change vs veh, NRIP1 / RFU, PTTG1IP / Fold change vs veh, PTTG1IP / RFU, CAPN2 / Fold change vs veh, CAPN2 / RFU, MED14 / Fold change vs veh, MED14 / RFU, SNORA58 / Fold change vs veh, SNORA58 / RFU, C1orf63 / Fold change vs veh, C1orf63 / RFU, LRRFIP1 / Fold change vs veh, LRRFIP1 / RFU, NDUFAF7 / Fold change vs veh, NDUFAF7 / RFU, SLC12A2 / Fold change vs veh, SLC12A2 / RFU, IBTK / Fold change vs veh, IBTK / RFU, ESF1 / Fold change vs veh, ESF1 / Fold change vs veh, TMEM50B / RFU, TAOK1 / Fold change vs veh, TAOK1 / RFU, ACBD3 / Fold change vs veh, ACBD3 / RFU, TMA16 / Fold change vs veh, TMA16 / RFU, RWDD3 / Fold change vs veh, RWDD3 / RFU, BCAT1 / Fold change vs veh, BCAT1 / RFU, EDEM3 / Fold change vs veh, EDEM3 / RFU, TMEM33 / Fold change vs veh, TMEM33 / RFU, WDR75 / Fold change vs veh, WDR75 / RFU, AHCTF1 / Fold change vs veh, AHCTF1 / RFU, TFRC / Fold change vs veh, TFRC / RFU, ZDHHC17 / Fold change vs veh, ZDHHC17 / RFU, NOM1 / Fold change vs veh, NOM1 / RFU, ARL8B / Fold change vs veh, ARL8B / RFU, ZBTB11 / Fold change vs veh, ZBTB11 / RFU, TAMM41 / Fold change vs veh, TAMM41 / RFU, KIAA1704 /// LOC100996395 / Fold change vs veh, KIAA1704 /// LOC100996395 / RFU, ING1 / Fold change vs veh, ING1 / RFU, TRMT61B / Fold change vs veh, TRMT61B / RFU, FUBP3 / Fold change vs veh, FUBP3 / RFU, TP53 / Fold change vs veh, TP53 / RFU, TNKS2 / Fold change vs veh, TNKS2 / RFU, ZFP14 / Fold change vs veh, ZFP14 / RFU, ACTR2 / Fold change vs veh, ACTR2 / RFU, PPP3R1 / Fold change vs veh, PPP3R1 / RFU, PIK3R1 / Fold change vs veh, PIK3R1 / RFU, HNRNPA1 / Fold change vs veh, HNRNPA1 / RFU, RNF170 / Fold change vs veh, RNF170 / RFU, ZNF28 / Fold change vs veh, ZNF28 / RFU, RNGTT / Fold change vs veh, RNGTT / RFU, OGT / Fold change vs veh, OGT / RFU, BRD1 / Fold change vs veh, BRD1 / RFU, MARS / Fold change vs veh, MARS / RFU, ZNF655 / Fold change vs veh, ZNF655 / RFU, FAHD1 / Fold change vs veh, FAHD1 / RFU, BDP1 / Fold change vs veh, BDP1 / RFU, LRRCC1 / Fold change vs veh, LRRCC1 / RFU, ARID1A / Fold change vs veh, ARID1A / RFU, ZNF146 / Fold change vs veh, ZNF146 / RFU, ZNF330 / Fold change vs veh, ZNF330 / RFU, GPN3 / Fold change vs veh, GPN3 / RFU, C9orf123 / Fold change vs veh, C9orf123 / RFU, N4BP2L2 / Fold change vs veh, N4BP2L2 / RFU, ARFIP1 / Fold change vs veh, ARFIP1 / RFU, FAM179B / Fold change vs veh, FAM179B / RFU, BCL10 / Fold change vs veh, BCL10 / RFU, UHRF1BP1L / Fold change vs veh, UHRF1BP1L / RFU, BET1 / Fold change vs veh, BET1 / RFU, CNOT2 / Fold change vs veh, CNOT2 / RFU, ZNF268 / Fold change vs veh, ZNF268 / Fold change vs veh, ZNF507 / RFU, DGCR2 / Fold change vs veh, DGCR2 / RFU, WDSUB1 / Fold change vs veh, WDSUB1 / Fold change vs veh, HSP90B1 /// MIR3652 / RFU, ADSS / Fold change vs veh, ADSS / RFU, GK / Fold change vs veh, GK / RFU, ZNF148 / Fold change vs veh, ZNF148 / RFU, TAF9 / Fold change vs veh, TAF9 / RFU, SLC1A5 / Fold change vs veh, SLC1A5 / RFU, SLMO2 / Fold change vs veh, SLMO2 / RFU, ABCC4 / Fold change vs veh, ABCC4 / RFU, LOC101060439 /// RAP1B / Fold change vs veh, LOC101060439 /// RAP1B / RFU, RFX7 / Fold change vs veh, RFX7 / RFU, GTPBP10 / Fold change vs veh, GTPBP10 / RFU, CNEP1R1 / Fold change vs veh, CNEP1R1 / RFU, BIVM-ERCC5 /// ERCC5 / Fold change vs veh, BIVM-ERCC5 /// ERCC5 / RFU, ILF3 / Fold change vs veh, ILF3 / RFU 11762660_at / Fold change /veh 11762660_at / RFU VCAN (11757783_s_at) / Fold change /veh VCAN (11757783_s_at) / RFU DDX43 (11728927_at) / Fold change /veh DDX43 (11728927_at) / RFU KRT8 (11758188_x_at) / Fold change /veh KRT8 (11758188_x_at) / RFU NKD1 (11759106_at) / Fold change /veh NKD1 (11759106_at) / RFU SRD5A1 (11742802_a_at) / Fold change /veh SRD5A1 (11742802_a_at) / RFU TPSAB1 /// TPSB2 (11721975_s_at) / Fold change /veh TPSAB1 /// TPSB2 (11721975_s_at) / RFU GSTM3 (11746129_a_at) / Fold change /veh GSTM3 (11746129_a_at) / RFU IL23R (11737362_x_at) / Fold change /veh IL23R (11737362_x_at) / RFU TMEM51 (11727254_a_at) / Fold change /veh TMEM51 (11727254_a_at) / RFU PIWIL2 (11732686_x_at) / Fold change /veh PIWIL2 (11732686_x_at) / RFU ORM1 (11744905_x_at) / Fold change /veh ORM1 (11744905_x_at) / RFU CCDC152 (11743942_at) / Fold change /veh CCDC152 (11743942_at) / RFU ECM1 (11717891_a_at) / Fold change /veh ECM1 (11717891_a_at) / RFU IL23R (11748794_a_at) / Fold change /veh IL23R (11748794_a_at) / RFU TNFAIP8L3 (11732012_x_at) / Fold change /veh TNFAIP8L3 (11732012_x_at) / RFU MBOAT4 (11741988_at) / Fold change /veh MBOAT4 (11741988_at) / RFU 11764193_at / Fold change /veh 11764193_at / RFU TMEM53 (11763286_at) / Fold change /veh TMEM53 (11763286_at) / RFU MAGEB2 (11727129_at) / Fold change /veh MAGEB2 (11727129_at) / RFU TMEM200A (11744735_a_at) / Fold change /veh TMEM200A (11744735_a_at) / RFU CCDC152 (11751479_a_at) / Fold change /veh CCDC152 (11751479_a_at) / RFU FAM211A (11726209_a_at) / Fold change /veh FAM211A (11726209_a_at) / RFU RGS16 (11746705_a_at) / Fold change /veh RGS16 (11746705_a_at) / RFU VCAN (11755009_s_at) / Fold change /veh VCAN (11755009_s_at) / RFU RHOB (11743442_s_at) / Fold change /veh RHOB (11743442_s_at) / RFU RGS16 (11720943_a_at) / Fold change /veh RGS16 (11720943_a_at) / RFU RGS16 (11720944_at) / Fold change /veh RGS16 (11720944_at) / RFU, VPS4B / Fold change vs veh, VPS4B / RFU, CREB1 / Fold change vs veh, CREB1 / RFU, DNAJC13 / Fold change vs veh, DNAJC13 / RFU, GNAQ / Fold change vs veh, GNAQ / RFU, CDK5R1 / Fold change vs veh, CDK5R1 / RFU, ZRANB3 / Fold change vs veh, ZRANB3 / RFU, CUL4A / Fold change vs veh, CUL4A / RFU, CCNY / Fold change vs veh, CCNY / RFU, UFL1 / Fold change vs veh, UFL1 / RFU, COG3 / Fold change vs veh, COG3 / RFU, DIAPH2 / Fold change vs veh, DIAPH2 / RFU, SKA2 / Fold change vs veh, SKA2 / RFU, AFF3 / Fold change vs veh, AFF3 / RFU, LMF1 / Fold change vs veh, LMF1 / RFU, IPO11 / Fold change vs veh, IPO11 / RFU, DFFB / Fold change vs veh, DFFB / RFU, FOXP1 / Fold change vs veh, FOXP1 / RFU, CARD8 / Fold change vs veh, CARD8 / RFU, STRN3 / Fold change vs veh, STRN3 / RFU, ADK / Fold change vs veh, ADK / RFU, RASSF2 / Fold change vs veh, RASSF2 / RFU, WIPF1 / Fold change vs veh, WIPF1 / RFU, LARP1B / Fold change vs veh, LARP1B / RFU, RASA1 / Fold change vs veh, RASA1 / RFU, RB1 / Fold change vs veh, RB1 / RFU, PPFIA1 / Fold change vs veh, PPFIA1 / RFU, MAT2A / Fold change vs veh, MAT2A / RFU, CCT5 / Fold change vs veh, CCT5 / RFU, WDR92 / Fold change vs veh, WDR92 / RFU, CUX1 / Fold change vs veh, CUX1 / RFU, TTC7A / Fold change vs veh, TTC7A / RFU, TMEM135 / Fold change vs veh, TMEM135 / RFU, DEPTOR / Fold change vs veh, DEPTOR / RFU, CPM / Fold change vs veh, CPM / RFU, DNAJB6 / Fold change vs veh, DNAJB6 / RFU, CACNA2D3 / Fold change vs veh, CACNA2D3 / RFU, DTX4 / Fold change vs veh, DTX4 / RFU, TFCP2 / Fold change vs veh, TFCP2 / RFU, GMCL1 /// GMCL1P1 / Fold change vs veh, GMCL1 /// GMCL1P1 / RFU, AEBP2 / Fold change vs veh, AEBP2 / RFU, SNHG1 /// SNORD22 /// SNORD25 /// SNORD26 /// SNORD27 /// SNORD28 /// SNORD29 /// SNORD31 / Fold change vs veh, SNHG1 /// SNORD22 /// SNORD25 /// SNORD26 /// SNORD27 /// SNORD28 /// SNORD29 /// SNORD31 / Fold change (Aza/veh), C12orf56 (ProbeSet 11735607_a_at) / Fold change (ACY-1035/veh), C12orf56 (ProbeSet 11735607_a_at) / Fold change (Aza/veh), FGFR1OP (ProbeSet 11751329_s_at) / Fold change (ACY-1035/veh), FGFR1OP (ProbeSet 11751329_s_at) / Fold change (Aza/veh), VPS36 (ProbeSet 11739960_a_at) / Fold change (ACY-1035/veh), VPS36 (ProbeSet 11739960_a_at) / RFU SYPL1 (11715823_x_at) / Fold change /veh SYPL1 (11715823_x_at) / RFU IGFBP7 (11715501_s_at) / Fold change /veh IGFBP7 (11715501_s_at) / RFU REEP3 (11722064_at) / Fold change /veh REEP3 (11722064_at) / RFU IGLL1 (11728026_x_at) / Fold change /veh IGLL1 (11728026_x_at): dose or concentration left out as unconfirmed
Details: MV-4-11 cells, 48 hours

Nc1ccc(-c2cccs2)cc1NC(=O)c1ccc2c(c1)cc(C1CC1)n2CCN1CCOCC1 [ACY-1035]
Fold change /veh IL23R (11737362_x_at): 1.14
